Earlier results on 1 molecule are cited in patent publication US20190133115A1, “PESTICIDAL SOLUBLE MICRO-EMULSION CONCENTRATE SEED TREATMENT FORMULATIONS” (priority 2017, published 2019).

For the data set the following is noted: in alcohols, e.g., ethanol, acetone, and toluene.

With `COCC(=O)N(c1c(C)cccc1C)C(C)C(=O)OC` (racemic) [Metalaxyl, methyl N-(methoxyacetyl)-N-(2,6-xylyl)-DL-alanate], the solubility result is given as “soluble”.
